ChEMBL document CHEMBL4507262, “Data for DCP probe A-1596586” (2021)

Key:
[1] = molecular target: Endothelin-1 receptor (Homo sapiens) (UniProt P25101); test: ETA (h) Eurofins-Cerep binding assay; parameters: ligand concentration 0.03 nM; conditions: filed as agonist, Compound concentration 10.0 uM
[2] = molecular target: Calcium/calmodulin-dependent protein kinase type 1G (Homo sapiens) (UniProt Q96NX5); conditions: Compound concentration 1000.0 nM
[3] = molecular target: Serine/threonine-protein kinase PknB (Mycobacterium tuberculosis) (UniProt P9WI81); conditions: Compound concentration 1000.0 nM
[4] = molecular target: Receptor-type tyrosine-protein kinase FLT3 (Homo sapiens) (UniProt P36888); conditions: Compound concentration 1000.0 nM
[5] = molecular target: Prostaglandin G/H synthase 1 (Homo sapiens) (UniProt P23219); test: COX1(h) Eurofins-Cerep enzyme and uptake assay; conditions: Compound concentration 10.0 uM
[6] = molecular target: Kappa-type opioid receptor (Homo sapiens) (UniProt P41145); conditions: Compound concentration 10.0 uM
Sequence of Kappa-type opioid receptor (Homo sapiens) (P41145 whole entry): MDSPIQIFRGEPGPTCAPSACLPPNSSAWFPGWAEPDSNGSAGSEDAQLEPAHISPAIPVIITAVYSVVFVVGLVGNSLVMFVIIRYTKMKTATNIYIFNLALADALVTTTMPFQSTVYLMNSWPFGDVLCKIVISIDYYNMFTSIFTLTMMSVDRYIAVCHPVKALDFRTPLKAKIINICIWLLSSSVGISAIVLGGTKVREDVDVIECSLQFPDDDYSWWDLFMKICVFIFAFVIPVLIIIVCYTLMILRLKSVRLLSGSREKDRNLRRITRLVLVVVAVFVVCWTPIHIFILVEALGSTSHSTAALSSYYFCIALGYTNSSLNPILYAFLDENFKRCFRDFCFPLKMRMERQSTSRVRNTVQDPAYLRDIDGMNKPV

[7] = molecular target: cGMP-dependent protein kinase 1 (Homo sapiens) (UniProt Q13976); conditions: Compound concentration 1000.0 nM
[8] = molecular target: Serine/threonine-protein kinase 4 (Homo sapiens) (UniProt Q13043); conditions: Compound concentration 1000.0 nM
[9] = molecular target: Tyrosine-protein kinase TXK (Homo sapiens) (UniProt P42681); conditions: Compound concentration 1000.0 nM
[10] = molecular target: D(4) dopamine receptor (Homo sapiens) (UniProt P21917); conditions: Compound concentration 10.0 uM
[11] = molecular target: Aurora kinase B (Homo sapiens) (UniProt Q96GD4); conditions: Compound concentration 1000.0 nM
[12] = molecular target: 5-hydroxytryptamine receptor 2A (Homo sapiens) (UniProt P28223); conditions: Compound concentration 10.0 uM
[13] = molecular target: Phosphatidylinositol 4,5-bisphosphate 3-kinase catalytic subunit beta isoform (Homo sapiens) (UniProt P42338); conditions: Compound concentration 1000.0 nM
[14] = molecular target: D(2) dopamine receptor (Homo sapiens) (UniProt P14416); test: D2S (h) Eurofins-Cerep binding assay; parameters: ligand concentration 0.3 nM; conditions: filed as antagonist, Compound concentration 10.0 uM
[15] = molecular target: Melatonin receptor type 1B (Homo sapiens) (UniProt P49286); test: MT2 (ML1B) (h) Eurofins-Cerep binding assay; parameters: ligand concentration 0.05 nM; conditions: filed as agonist, Compound concentration 10.0 uM
Sequence of Melatonin receptor type 1B (Homo sapiens) (P49286 whole entry): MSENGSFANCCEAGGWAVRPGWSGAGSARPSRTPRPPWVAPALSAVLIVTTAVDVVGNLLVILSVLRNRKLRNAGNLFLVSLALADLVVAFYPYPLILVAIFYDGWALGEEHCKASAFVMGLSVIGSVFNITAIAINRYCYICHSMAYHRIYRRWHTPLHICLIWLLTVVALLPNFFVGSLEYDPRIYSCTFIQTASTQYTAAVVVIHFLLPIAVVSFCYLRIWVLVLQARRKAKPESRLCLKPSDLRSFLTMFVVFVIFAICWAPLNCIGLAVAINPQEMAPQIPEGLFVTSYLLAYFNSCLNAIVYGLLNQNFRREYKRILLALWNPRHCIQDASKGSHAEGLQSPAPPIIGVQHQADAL

[16] = molecular target: Fibroblast growth factor receptor 3 (Homo sapiens) (UniProt P22607); conditions: Compound concentration 1000.0 nM
[17] = system: Epidermal growth factor receptor (Homo sapiens), P00533 [UNDEFINED MUTATION]; conditions: Compound concentration 1000.0 nM
[18] = molecular target: Histamine H4 receptor (Homo sapiens) (UniProt Q9H3N8); conditions: Compound concentration 10.0 uM
Sequence of Histamine H4 receptor (Homo sapiens) (Q9H3N8 whole entry): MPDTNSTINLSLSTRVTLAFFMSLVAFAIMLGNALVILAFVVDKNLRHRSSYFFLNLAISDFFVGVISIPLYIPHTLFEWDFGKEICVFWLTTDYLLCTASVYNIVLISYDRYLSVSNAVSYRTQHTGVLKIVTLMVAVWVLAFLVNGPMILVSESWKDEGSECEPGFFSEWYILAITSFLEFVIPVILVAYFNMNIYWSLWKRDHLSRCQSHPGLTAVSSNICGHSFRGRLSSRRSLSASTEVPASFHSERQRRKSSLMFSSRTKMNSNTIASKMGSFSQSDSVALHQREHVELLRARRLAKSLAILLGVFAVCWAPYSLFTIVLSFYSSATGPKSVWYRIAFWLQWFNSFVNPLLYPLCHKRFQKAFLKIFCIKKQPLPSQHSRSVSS

[19] = system: Tyrosine-protein kinase ABL1 (Homo sapiens), P00519 [F317I]; conditions: Compound concentration 1000.0 nM
[20] = molecular target: SRSF protein kinase 2 (Homo sapiens) (UniProt P78362); conditions: Compound concentration 1000.0 nM
[21] = molecular target: ALK tyrosine kinase receptor (Homo sapiens) (UniProt Q9UM73); conditions: Compound concentration 1000.0 nM
[22] = molecular target: Phosphatidylinositol 3-kinase catalytic subunit type 3 (Homo sapiens) (UniProt Q8NEB9); conditions: Compound concentration 1000.0 nM
[23] = molecular target: Cyclin-dependent kinase 19 (Homo sapiens) (UniProt Q9BWU1); conditions: Compound concentration 1000.0 nM
[24] = system: Phosphatidylinositol 4,5-bisphosphate 3-kinase catalytic subunit alpha isoform (Homo sapiens), P42336 [E545K]; conditions: Compound concentration 1000.0 nM
Sequence of Phosphatidylinositol 4,5-bisphosphate 3-kinase catalytic subunit alpha isoform (Homo sapiens), P42336 [E545K] (P42336 whole entry E545K, canonical isoform): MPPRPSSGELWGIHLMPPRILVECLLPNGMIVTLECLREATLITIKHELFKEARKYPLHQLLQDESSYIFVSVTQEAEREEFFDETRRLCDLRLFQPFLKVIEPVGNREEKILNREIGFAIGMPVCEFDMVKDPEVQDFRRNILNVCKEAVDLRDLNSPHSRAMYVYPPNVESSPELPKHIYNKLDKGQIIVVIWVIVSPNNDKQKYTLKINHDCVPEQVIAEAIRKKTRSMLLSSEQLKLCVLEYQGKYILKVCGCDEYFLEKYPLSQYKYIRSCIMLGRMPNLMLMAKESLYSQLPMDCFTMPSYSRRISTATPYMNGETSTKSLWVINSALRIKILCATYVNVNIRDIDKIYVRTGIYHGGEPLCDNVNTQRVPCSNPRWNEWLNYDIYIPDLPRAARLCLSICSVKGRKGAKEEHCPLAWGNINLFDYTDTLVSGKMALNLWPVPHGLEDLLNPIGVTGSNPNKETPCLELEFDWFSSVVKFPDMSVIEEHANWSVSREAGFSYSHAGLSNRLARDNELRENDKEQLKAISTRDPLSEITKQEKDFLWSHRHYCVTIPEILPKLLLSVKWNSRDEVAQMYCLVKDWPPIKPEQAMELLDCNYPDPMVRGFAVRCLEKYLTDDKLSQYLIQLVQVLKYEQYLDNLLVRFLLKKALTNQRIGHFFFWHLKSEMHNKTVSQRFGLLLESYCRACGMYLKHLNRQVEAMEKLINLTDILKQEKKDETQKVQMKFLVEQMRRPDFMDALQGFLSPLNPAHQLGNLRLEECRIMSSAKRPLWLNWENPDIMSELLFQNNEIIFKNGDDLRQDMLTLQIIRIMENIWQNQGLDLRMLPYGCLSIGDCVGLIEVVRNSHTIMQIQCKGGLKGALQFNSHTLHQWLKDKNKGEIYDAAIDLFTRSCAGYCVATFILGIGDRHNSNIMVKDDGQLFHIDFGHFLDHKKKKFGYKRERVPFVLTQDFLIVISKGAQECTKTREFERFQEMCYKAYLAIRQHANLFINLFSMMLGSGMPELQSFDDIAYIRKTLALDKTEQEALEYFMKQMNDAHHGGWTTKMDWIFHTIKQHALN

[25] = molecular target: Mitogen-activated protein kinase kinase kinase kinase 5 (Homo sapiens) (UniProt Q9Y4K4); conditions: Compound concentration 1000.0 nM
[26] = molecular target: Dual specificity mitogen-activated protein kinase kinase 2 (Homo sapiens) (UniProt P36507); conditions: Compound concentration 1000.0 nM
[27] = molecular target: Tyrosine-protein kinase ZAP-70 (Homo sapiens) (UniProt P43403); conditions: Compound concentration 1000.0 nM
[28] = system: Epidermal growth factor receptor (Homo sapiens), P00533 [UNDEFINED MUTATION]; conditions: Compound concentration 1000.0 nM; remark: listed apart in the source
[29] = system: Receptor-type tyrosine-protein kinase FLT3 (Homo sapiens), P36888 [D835H]; conditions: Compound concentration 1000.0 nM
[30] = molecular target: STE20/SPS1-related proline-alanine-rich protein kinase (Homo sapiens) (UniProt Q9UEW8); conditions: Compound concentration 1000.0 nM
[31] = molecular target: Alpha-1A adrenergic receptor (Homo sapiens) (UniProt P35348); test: Alpha1A (h) Eurofins-Cerep binding assay; parameters: ligand concentration 0.1 nM; conditions: filed as antagonist, Compound concentration 10.0 uM
[32] = molecular target: B2 bradykinin receptor (Homo sapiens) (UniProt P30411); test: B2 (h) Eurofins-Cerep binding assay; parameters: ligand concentration 0.3 nM; conditions: filed as agonist, Compound concentration 10.0 uM
[33] = system: Epidermal growth factor receptor (Homo sapiens), P00533 [L861Q]; conditions: Compound concentration 1000.0 nM
[34] = system: Phosphatidylinositol 4,5-bisphosphate 3-kinase catalytic subunit alpha isoform (Homo sapiens), P42336 [H1047L]; conditions: Compound concentration 1000.0 nM
Sequence of Phosphatidylinositol 4,5-bisphosphate 3-kinase catalytic subunit alpha isoform (Homo sapiens), P42336 [H1047L] (P42336 whole entry H1047L, canonical isoform): as the sequence (P42336 whole entry E545K, canonical isoform) above, with K545E, H1047L counted along it

[35] = molecular target: Mitogen-activated protein kinase kinase kinase 15 (Homo sapiens) (UniProt Q6ZN16); conditions: Compound concentration 1000.0 nM
Sequence of Mitogen-activated protein kinase kinase kinase 15 (Homo sapiens) (Q6ZN16 whole entry): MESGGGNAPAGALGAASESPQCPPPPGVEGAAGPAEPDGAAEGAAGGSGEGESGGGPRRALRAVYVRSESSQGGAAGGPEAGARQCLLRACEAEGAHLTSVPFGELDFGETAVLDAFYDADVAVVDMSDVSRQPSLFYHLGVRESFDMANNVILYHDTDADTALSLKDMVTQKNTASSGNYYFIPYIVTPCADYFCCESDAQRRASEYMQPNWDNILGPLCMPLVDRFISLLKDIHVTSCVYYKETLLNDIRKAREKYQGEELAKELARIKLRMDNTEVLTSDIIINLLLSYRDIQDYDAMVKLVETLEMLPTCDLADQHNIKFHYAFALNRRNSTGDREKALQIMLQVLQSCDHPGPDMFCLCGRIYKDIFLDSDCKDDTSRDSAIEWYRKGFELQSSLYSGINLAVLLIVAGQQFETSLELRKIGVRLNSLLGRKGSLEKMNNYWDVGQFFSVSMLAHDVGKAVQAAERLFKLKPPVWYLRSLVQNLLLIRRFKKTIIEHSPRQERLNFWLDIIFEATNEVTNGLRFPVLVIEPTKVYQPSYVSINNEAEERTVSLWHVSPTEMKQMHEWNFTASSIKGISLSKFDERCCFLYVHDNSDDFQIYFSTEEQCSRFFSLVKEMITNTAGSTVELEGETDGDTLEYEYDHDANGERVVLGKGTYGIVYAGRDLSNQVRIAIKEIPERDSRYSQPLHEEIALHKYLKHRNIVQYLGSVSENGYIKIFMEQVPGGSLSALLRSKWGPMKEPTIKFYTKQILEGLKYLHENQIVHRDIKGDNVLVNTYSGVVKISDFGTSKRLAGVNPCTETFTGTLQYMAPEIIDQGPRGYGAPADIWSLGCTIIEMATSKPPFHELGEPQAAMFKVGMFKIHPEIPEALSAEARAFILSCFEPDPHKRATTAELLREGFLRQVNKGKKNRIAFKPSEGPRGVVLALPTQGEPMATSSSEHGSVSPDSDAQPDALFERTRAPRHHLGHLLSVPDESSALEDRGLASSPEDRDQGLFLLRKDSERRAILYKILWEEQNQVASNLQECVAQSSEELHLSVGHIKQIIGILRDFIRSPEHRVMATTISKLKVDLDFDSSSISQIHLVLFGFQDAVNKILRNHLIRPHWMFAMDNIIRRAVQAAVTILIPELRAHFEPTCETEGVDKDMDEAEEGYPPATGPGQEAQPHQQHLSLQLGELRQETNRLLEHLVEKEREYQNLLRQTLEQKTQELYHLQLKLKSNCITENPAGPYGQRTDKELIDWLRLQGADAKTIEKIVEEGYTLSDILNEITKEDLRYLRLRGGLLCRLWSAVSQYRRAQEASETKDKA

[36] = molecular target: Serine/threonine-protein kinase 25 (Homo sapiens) (UniProt O00506); conditions: Compound concentration 1000.0 nM
[37] = molecular target: Mitogen-activated protein kinase kinase kinase 11 (Homo sapiens) (UniProt Q16584); conditions: Compound concentration 1000.0 nM
[38] = system: Mast/stem cell growth factor receptor Kit (Homo sapiens), P10721 [D816V]; conditions: Compound concentration 1000.0 nM
Sequence of Mast/stem cell growth factor receptor Kit (Homo sapiens), P10721 [D816V] (P10721 whole entry D816V): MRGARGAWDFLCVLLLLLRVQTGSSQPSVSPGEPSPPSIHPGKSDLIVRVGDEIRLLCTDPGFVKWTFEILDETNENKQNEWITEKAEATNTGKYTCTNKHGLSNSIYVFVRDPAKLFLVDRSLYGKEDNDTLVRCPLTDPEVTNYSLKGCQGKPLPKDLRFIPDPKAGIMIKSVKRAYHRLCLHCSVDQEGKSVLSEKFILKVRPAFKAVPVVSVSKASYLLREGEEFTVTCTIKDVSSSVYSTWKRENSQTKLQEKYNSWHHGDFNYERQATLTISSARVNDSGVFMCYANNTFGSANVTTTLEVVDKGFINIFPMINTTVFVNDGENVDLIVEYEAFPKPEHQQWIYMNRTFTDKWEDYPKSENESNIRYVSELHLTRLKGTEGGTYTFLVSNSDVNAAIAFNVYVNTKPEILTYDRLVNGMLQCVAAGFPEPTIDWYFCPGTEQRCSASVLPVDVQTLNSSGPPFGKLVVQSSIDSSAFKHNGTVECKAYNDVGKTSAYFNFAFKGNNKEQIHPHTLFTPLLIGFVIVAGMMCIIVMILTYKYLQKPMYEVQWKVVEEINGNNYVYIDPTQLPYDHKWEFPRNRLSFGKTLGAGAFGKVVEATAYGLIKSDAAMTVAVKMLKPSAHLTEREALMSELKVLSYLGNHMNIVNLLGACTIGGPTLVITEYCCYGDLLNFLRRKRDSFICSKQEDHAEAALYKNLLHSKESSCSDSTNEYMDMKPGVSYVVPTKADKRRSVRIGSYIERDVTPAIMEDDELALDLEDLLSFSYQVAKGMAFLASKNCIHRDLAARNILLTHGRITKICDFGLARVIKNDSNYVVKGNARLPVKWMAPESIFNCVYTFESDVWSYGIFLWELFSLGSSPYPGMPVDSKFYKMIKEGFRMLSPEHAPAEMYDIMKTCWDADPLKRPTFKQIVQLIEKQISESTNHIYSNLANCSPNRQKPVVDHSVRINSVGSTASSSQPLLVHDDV

[39] = molecular target: Membrane-associated tyrosine- and threonine-specific cdc2-inhibitory kinase (Homo sapiens) (UniProt Q99640); conditions: Compound concentration 1000.0 nM

Sequence of Endothelin-1 receptor (Homo sapiens) (P25101 whole entry): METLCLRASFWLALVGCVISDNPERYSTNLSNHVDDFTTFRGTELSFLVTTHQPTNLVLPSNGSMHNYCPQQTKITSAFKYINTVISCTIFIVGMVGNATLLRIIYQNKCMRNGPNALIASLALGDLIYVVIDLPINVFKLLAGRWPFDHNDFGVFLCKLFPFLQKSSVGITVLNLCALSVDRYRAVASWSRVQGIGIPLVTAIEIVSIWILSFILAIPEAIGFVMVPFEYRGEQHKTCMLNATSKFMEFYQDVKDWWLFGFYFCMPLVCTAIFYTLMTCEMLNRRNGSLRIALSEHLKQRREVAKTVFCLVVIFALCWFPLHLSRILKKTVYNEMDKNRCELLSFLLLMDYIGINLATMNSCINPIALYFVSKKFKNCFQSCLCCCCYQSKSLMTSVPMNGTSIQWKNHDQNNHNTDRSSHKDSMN

COc1ccc2c(c1)O[C@H](c1ccc(OC)c(OC)c1)C[C@@H]2NC(=O)C1(c2ccc3c(c2)OC(F)(F)O3)CC1 [A-1596584]
% Inhibition of Control Specific Binding (Mean n=2) [1]: 4% | residual activity [2]: 100% | residual activity [3]: 88% | residual activity [4]: 100% | % Inhibition of Control Values (Mean n=2) [5]: -6.7% | inhibition [6]: 27.4% | residual activity [7]: 100% | residual activity [8]: 95% | residual activity [9]: 95% | inhibition [10]: -6.5% | residual activity [11]: 98% | inhibition [12]: 7.46% | residual activity [13]: 100% | % Inhibition of Control Specific Binding (Mean n=2) [14]: 18.7% | % Inhibition of Control Specific Binding (Mean n=2) [15]: 38% | residual activity [16]: 100% | residual activity [17]: 100% | inhibition [18]: 6.21% | residual activity [19]: 100% | residual activity [20]: 100% | residual activity [21]: 100% | residual activity [22]: 88% | residual activity [23]: 94% | residual activity [24]: 91% | residual activity [25]: 100% | residual activity [26]: 100% | residual activity [27]: 93% | residual activity [28]: 100% | residual activity [29]: 100% | residual activity [30]: 100% | % Inhibition of Control Specific Binding (Mean n=2) [31]: 27.3% | % Inhibition of Control Specific Binding (Mean n=2) [32]: -8.3% | residual activity [33]: 100% | residual activity [34]: 100% | residual activity [35]: 100% | residual activity [36]: 100% | residual activity [37]: 100% | residual activity [38]: 99% | residual activity [39]: 100%

COc1ccc2c(c1)O[C@@H](c1ccc(OC)c(OC)c1)C[C@H]2NC(=O)C1(c2ccc3c(c2)OC(F)(F)O3)CC1 [A-1596586]
% Inhibition of Control Specific Binding (Mean n=2) [1]: -6.9% | residual activity [2]: 84% | residual activity [3]: 85% | residual activity [4]: 100% | % Inhibition of Control Values (Mean n=2) [5]: -7.9% | inhibition [6]: 34.1% | residual activity [7]: 100% | residual activity [8]: 79% | residual activity [9]: 97% | inhibition [10]: -7.47% | residual activity [11]: 84% | inhibition [12]: 8.84% | residual activity [13]: 89% | % Inhibition of Control Specific Binding (Mean n=2) [14]: 27.7% | % Inhibition of Control Specific Binding (Mean n=2) [15]: 41% | residual activity [16]: 89% | residual activity [17]: 100% | inhibition [18]: -2.97% | residual activity [19]: 78% | residual activity [20]: 91% | residual activity [21]: 100% | residual activity [22]: 78% | residual activity [23]: 93% | residual activity [24]: 77% | residual activity [25]: 100% | residual activity [26]: 87% | residual activity [27]: 71% | residual activity [28]: 100% | residual activity [29]: 100% | residual activity [30]: 71% | % Inhibition of Control Specific Binding (Mean n=2) [31]: 5.7% | % Inhibition of Control Specific Binding (Mean n=2) [32]: -13.5% | residual activity [33]: 100% | residual activity [34]: 77% | residual activity [35]: 88% | residual activity [36]: 100% | residual activity [37]: 100% | residual activity [38]: 92% | residual activity [39]: 90%
